Patent EP2931723B1, “NEW BICYCLIC COMPOUNDS AND THEIR USE AS ANTIBACTERIAL AGENTS AND -LACTAMASE INHIBITORS” (Fedora Pharmaceuticals Inc., priority 2012, dated 2014)

Assays:
Assay in all cases: MIC, antibacterial and synergistic activity
Type in all cases: cell-based
[1] = system: A. baumanii JMI 2659; settings: A. baumanii JMI 2659 (Ges-14 (Cpase))
[2] = system: E. cloacae JMI 36; settings: E. cloacae JMI 36 (P99)
[3] = system: E.coli JMI 4103; settings: E.coli JMI 4103 (KPC-2, Tem-1, CMY-Type)
[4] = system: E. coli JMI 10767; settings: E. coli JMI 10767 (Wt)
[5] = system: E. coli ATCC 25922; settings: E. coli ATCC 25922 (Wt)
[6] = system: E. coli JMI 10768; settings: E. coli JMI 10768 (CTX-M15 (Weak ESBL)); Meropenem + inhibitor at 4 µg/mL
[7] = system: K. pneumo JMI 2674; settings: K. pneumo JMI 2674 (CTX-M15 (ESBL)); substance alone
[8] = system: P. aerug JMI 149; settings: P. aerug JMI 149 (Bla+++D+)
[9] = system: K. pneumo JMI 2674; settings: K. pneumo JMI 2674 (CTX-M15 (ESBL))
In short: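 Antibacterial activity was assessed as minimum inhibitory concentrations against a β-lactamase-producing bacterial strain. Each test inhibitor was combined with an antibiotic, with the inhibitor held at a fixed 4 µg/mL, to determine whether it acted synergistically and restored the antibiotic's effect against the resistant organism.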

[10] = system: K. pneumo JMI 4088; settings: K. pneumo JMI 4088 (KPC-3 (Cpase))
In short: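 Minimum inhibitory concentrations were measured for antibiotics given together with the test inhibitor, held at 4 µg/mL, against bacteria that produce β-lactamase. The purpose was to see whether the inhibitor restores or boosts antibacterial activity, that is, synergy with the antibiotic.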

[11] = system: E. coli JMI 10770; settings: E. coli JMI 10770 (CTX-M15 (Hyper ESBL))
Protocol: (§1) In the Tables 10 - 12, compounds herein disclosed were tested in combination with various antibiotics against metallo β-lactamase producing bacteria. Table 3: Synergy of the inhibitor Ex. 1 (4 µg/mL) in combination with antibiotics

[12] = system: E. coli JMI 2671
In short: (§2)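 Synergistic activity: antibiotics tested with inhibitor (4 µg/mL fixed) against strains expressing metallo β-lactamases.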

[13] = system: P. aerug JMI 2686; settings: P. aerug JMI 2686 (KPC-2 (Cpase))
In short: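 This antibacterial synergy assay measured the minimum inhibitory concentration of antibiotics combined with the disclosed inhibitor compounds. The inhibitor was held at 4 µg/mL throughout. The aim was to see whether the added compound strengthened the antibiotic's action against the tested bacteria.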

[14] = system: E. coli JMI 10767; settings: E. coli JMI 10767 (Wt); remark: listed apart in the source
Protocol: as §1

[15] = system: K. pneumo JMI 2699; settings: K. pneumo JMI 2699 (VIM-1, CTX-M3)
In short: as §2

[16] = system: E. coli JMI 10768; settings: E. coli JMI 10768 (CTX-M15 (Weak ESBL))
Protocol: as §1

[17] = system: K. pneumo JMI 2673; settings: K. pneumo JMI 2673 (CTX-M14 (ESBL))
In short: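 Compounds were evaluated together with various antibiotics to measure synergistic antibacterial activity. For each combination, the minimum inhibitory concentration of the antibiotic was recorded while the inhibitor was present at a constant 4 µg/mL.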

[18] = system: E. coli JMI 2665
Protocol: as §1

[19] = system: K.pneumo JMI 4109; settings: K.pneumo JMI 4109 (SHV-1, SHV-12)
In short: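 Antibacterial synergy was assessed by pairing each inhibitor compound, at a constant concentration of 4 µg/mL, with β-lactam antibiotics. The combinations were run against bacterial strains that produce β-lactamases, and the readout was the minimum inhibitory concentration of the antibiotic in the presence of the inhibitor.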

[20] = system: K. pneumo JMI 2673; settings: K. pneumo JMI 2673 (CTX-M14 (ESBL)); substance alone
[21] = system: K. pneumo JMI 4088; settings: K. pneumo JMI 4088 (KPC-3 (Cpase)); substance alone
[22] = system: E. coli JMI 4080
[23] = system: K. pneumo JMI 2681; settings: K. pneumo JMI 2681 (Oxa-48 (Cpase))
[24] = Aztreonam + inhibitor at 4 µg/mL
[25] = Ceftazidime + inhibitor at 4 µg/mL
[26] = Meropenem + inhibitor at 4 µg/mL

O=C(NO[C@H]1CCNC1)[C@@H]1CC[C@@H]2CN1C(=O)N2OS(=O)(=O)O [Ex. 1, (2S,5R)-7-Oxo-N-[(3S)-pyrrolidin-3-yloxy]-6-(sulfooxy)-1,6-diazabicyclo[3.2.1]octane-2-carboxamide]
MIC Aztreonam + inhibitor [1, 24]: >4 µg/mL
MIC Ceftazidime + inhibitor [1, 25]: >16 µg/mL
MIC Meropenem + inhibitor [1, 26]: 2 µg/mL
MIC ([1]; Acinetobacter baumannii, JMI2659, substance alone, read-out: MIC): > 16 µg/mL
MIC Aztreonam + inhibitor [2, 24]: 0.25 µg/mL
MIC Ceftazidime + inhibitor [2, 25]: 1 µg/mL
MIC Meropenem + inhibitor [2, 26]: 0.062 µg/mL
MIC ([2]; Enterobacter cloacae, JMI36, substance alone, read-out: MIC): > 16 µg/mL
MIC Aztreonam + inhibitor [3, 24]: >4 µg/mL
MIC Ceftazidime + inhibitor [3, 25]: 8 µg/mL
MIC Meropenem + inhibitor [3, 26]: ≤.031 µg/mL
MIC ([3]; Escherichia coli, JMI4103, substance alone): 16 µg/mL
MIC Meropenem + inhibitor [4, 26]: ≤.031 µg/mL
MIC ([4]; Escherichia coli, JMI10767, substance alone): 8 µg/mL
MIC Aztreonam + inhibitor [5, 24]: ≤.062 µg/mL
MIC Ceftazidime + inhibitor [5, 25]: ≤0.25 µg/mL
MIC Meropenem + inhibitor [5, 26]: ≤.031 µg/mL
MIC ([5]; Escherichia coli, ATCC25922, substance alone): 8 µg/mL
MIC Meropenem + inhibitor [6]: ≤.031 µg/mL
MIC [7]: > 16 µg/mL
MIC Aztreonam + inhibitor [8, 24]: >4 µg/mL
MIC Ceftazidime + inhibitor [8, 25]: 4 µg/mL
MIC Meropenem + inhibitor [8, 26]: 0.5 µg/mL
MIC ([8]; substance alone, read-out: MIC): > 16 µg/mL
MIC Aztreonam + inhibitor [9, 24]: ≤.062 µg/mL
MIC Ceftazidime + inhibitor [9, 25]: ≤0.25 µg/mL
MIC Meropenem + inhibitor [9, 26]: 0.062 µg/mL
MIC Aztreonam + inhibitor [10, 24]: ≤.062 µg/mL
MIC Ceftazidime + inhibitor [10, 25]: ≤0.25 µg/mL
MIC Meropenem + inhibitor [10, 26]: 0.062 µg/mL
MIC Aztreonam + inhibitor [11, 24]: ≤.062 µg/mL
MIC Ceftazidime + inhibitor [11, 25]: ≤0.25 µg/mL
MIC Meropenem + inhibitor [11, 26]: ≤.031 µg/mL
MIC Aztreonam + inhibitor ([12]; E. coli JMI 2671 (VIM-19 (Cpase)), Aztreonam + inhibitor at 4 µg/mL): ≤.062 µg/mL
MIC Ceftazidime + inhibitor ([12]; E. coli JMI 2671 (VIM-19 (Cpase)), Ceftazidime + inhibitor at 4 µg/mL): 2 µg/mL
MIC Meropenem + inhibitor ([12]; E. coli JMI 2671 (VIM-19 (Cpase)), Meropenem + inhibitor at 4 µg/mL): 2 µg/mL
MIC ([12]; Escherichia coli, JMI2671, E. coli JMI 2671 (VIM-19 (Cpase)), substance alone): 4 µg/mL
MIC Aztreonam + inhibitor [13, 24]: >4 µg/mL
MIC Ceftazidime + inhibitor [13, 25]: 16 µg/mL
MIC Meropenem + inhibitor [13, 26]: >2 µg/mL
MIC Aztreonam + inhibitor [14, 24]: ≤.062 µg/mL
MIC Ceftazidime + inhibitor [14, 25]: ≤0.25 µg/mL
MIC Aztreonam + inhibitor [15, 24]: 0.5 µg/mL
MIC Ceftazidime + inhibitor [15, 25]: 16 µg/mL
MIC Meropenem + inhibitor [15, 26]: 2 µg/mL
MIC ([15]; substance alone, read-out: MIC): 8 µg/mL
MIC Aztreonam + inhibitor [16, 24]: ≤.062 µg/mL
MIC Ceftazidime + inhibitor [16, 25]: ≤0.25 µg/mL
MIC ([16]; Escherichia coli, JMI10768, substance alone): 8 µg/mL
MIC Aztreonam + inhibitor [17, 24]: ≤.062 µg/mL
MIC Ceftazidime + inhibitor [17, 25]: ≤0.25 µg/mL
MIC Meropenem + inhibitor [17, 26]: ≤.031 µg/mL
MIC Aztreonam + inhibitor ([18]; E. coli JMI 2665 (CMY-2 (Plasmid Cpase)), Aztreonam + inhibitor at 4 µg/mL): ≤.062 µg/mL
MIC Ceftazidime + inhibitor ([18]; E. coli JMI 2665 (CMY-2 (Plasmid Cpase)), Ceftazidime + inhibitor at 4 µg/mL): ≤0.25 µg/mL
MIC Meropenem + inhibitor ([18]; E. coli JMI 2665 (CMY-2 (Plasmid Cpase)), Meropenem + inhibitor at 4 µg/mL): ≤.031 µg/mL
MIC ([18]; Escherichia coli, JMI2665): 4 µg/mL
MIC Aztreonam + inhibitor [19, 24]: ≤.062 µg/mL
MIC Ceftazidime + inhibitor [19, 25]: ≤0.25 µg/mL
MIC Meropenem + inhibitor [19, 26]: ≤.031 µg/mL
MIC [20]: > 16 µg/mL
MIC [21]: 4 µg/mL
MIC Aztreonam + inhibitor ([22]; E. coli JMI 4080 (Tem-10), Aztreonam + inhibitor at 4 µg/mL): 1 µg/mL
MIC Ceftazidime + inhibitor ([22]; E. coli JMI 4080 (Tem-10), Ceftazidime + inhibitor at 4 µg/mL): 1 µg/mL
MIC Meropenem + inhibitor ([22]; E. coli JMI 4080 (Tem-10), Meropenem + inhibitor at 4 µg/mL): ≤.031 µg/mL
MIC ([22]; Escherichia coli, JMI4080, E. coli JMI 4080 (Tem-10), substance alone): 8 µg/mL
MIC Aztreonam + inhibitor [23, 24]: 4 µg/mL
MIC Ceftazidime + inhibitor [23, 25]: 4 µg/mL
MIC Meropenem + inhibitor [23, 26]: >2 µg/mL
MIC ([23]; substance alone, read-out: MIC): > 16 µg/mL
